Measurements as given in the supplement of paper PMC10307832.

What was measured:
Experiment in all cases: relative viability (nuclei count vs DMSO), 5 days (fraction); higher = more cells survive
Pictilisib + Decitabine = compound: CS(=O)(=O)N1CCN(Cc2cc3nc(-c4cccc5[nH]ncc45)nc(N4CCOCC4)c3s2)CC1 [Pictilisib] + Nc1ncn([C@H]2C[C@H](O)[C@@H](CO)O2)c(=O)n1 [Decitabine] (partner 2 µM)
Procedure, shortened: (§1)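 Dosing by pin tool came one day after lung cancer cell lines were seeded in 1536-well plates, using either one drug or a fixed anchor-drug dose plus five library-drug doses (not always all listed) in √10 steps. After 5 days, nuclei were counted on 4× images. Relative viability is treated-well nuclei count divided by vehicle-well nuclei count, and values are medians of duplicate plates.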

MK-2206 + OSI-027 = compound: NC1(c2ccc(-c3nc4ccn5c(=O)[nH]nc5c4cc3-c3ccccc3)cc2)CCC1 [MK-2206] + COc1cccc2cc(-c3nc([C@H]4CC[C@H](C(=O)O)CC4)n4ncnc(N)c34)[nH]c12 [OSI-027] (partner 0.5 µM)
Procedure, shortened: as §1

Pictilisib + Luminespib = compound: CS(=O)(=O)N1CCN(Cc2cc3nc(-c4cccc5[nH]ncc45)nc(N4CCOCC4)c3s2)CC1 [Pictilisib] + CCNC(=O)c1noc(-c2cc(C(C)C)c(O)cc2O)c1-c1ccc(CN2CCOCC2)cc1 [Luminespib] (partner 0.01 µM)
Procedure, shortened: as §1

Pictilisib + Trametinib = compound: CS(=O)(=O)N1CCN(Cc2cc3nc(-c4cccc5[nH]ncc45)nc(N4CCOCC4)c3s2)CC1 [Pictilisib] + CC(=O)Nc1cccc(-n2c(=O)n(C3CC3)c(=O)c3c(Nc4ccc(I)cc4F)n(C)c(=O)c(C)c32)c1 [Trametinib] (partner 0.02 µM)
Procedure, shortened: as §1

Pictilisib + Crizotinib = compound: CS(=O)(=O)N1CCN(Cc2cc3nc(-c4cccc5[nH]ncc45)nc(N4CCOCC4)c3s2)CC1 [Pictilisib] + C[C@@H](Oc1cc(-c2cnn(C3CCNCC3)c2)cnc1N)c1c(Cl)ccc(F)c1Cl [Crizotinib] (partner 1 µM)
Procedure, shortened: as §1

## NCI-H3122
Pictilisib + Decitabine; first compound 0.02 µM
  relative viability: 0.443
Pictilisib + Decitabine; first compound 0.06325 µM
  relative viability: 0.412
Pictilisib + Decitabine; first compound 0.6325 µM
  relative viability: 0.287
Pictilisib + Decitabine; first compound 2 µM
  relative viability: 0.115
MK-2206 + OSI-027; first compound 0.01 µM
  relative viability: 0.875
MK-2206 + OSI-027; first compound 0.03162 µM
  relative viability: 0.963
MK-2206 + OSI-027; first compound 0.3162 µM
  relative viability: 0.424
MK-2206 + OSI-027; first compound 1 µM
  relative viability: 0.163
Pictilisib + Luminespib; first compound 0.02 µM
  relative viability: 0.0804
Pictilisib + Luminespib; first compound 0.06325 µM
  relative viability: 0.107
Pictilisib + Luminespib; first compound 0.6325 µM
  relative viability: 0.0795
Pictilisib + Luminespib; first compound 2 µM
  relative viability: 0.0927
Pictilisib + Trametinib; first compound 0.02 µM
  relative viability: 0.201
Pictilisib + Trametinib; first compound 0.06325 µM
  relative viability: 0.202
Pictilisib + Trametinib; first compound 0.6325 µM
  relative viability: 0.161
Pictilisib + Trametinib; first compound 2 µM
  relative viability: 0.122
Pictilisib + Crizotinib; first compound 0.02 µM
  relative viability: 0.258
Pictilisib + Crizotinib; first compound 0.06325 µM
  relative viability: 0.253
Pictilisib + Crizotinib; first compound 0.6325 µM
  relative viability: 0.194
Pictilisib + Crizotinib; first compound 2 µM
  relative viability: 0.186

## NCI-H2170
Pictilisib + Decitabine; first compound 0.02 µM
  relative viability: 0.46
Pictilisib + Decitabine; first compound 0.06325 µM
  relative viability: 0.445
Pictilisib + Decitabine; first compound 0.6325 µM
  relative viability: 0.462
Pictilisib + Decitabine; first compound 2 µM
  relative viability: 0.366
MK-2206 + OSI-027; first compound 0.01 µM
  relative viability: 0.747
MK-2206 + OSI-027; first compound 0.03162 µM
  relative viability: 0.701
MK-2206 + OSI-027; first compound 0.3162 µM
  relative viability: 0.625
MK-2206 + OSI-027; first compound 1 µM
  relative viability: 0.588
Pictilisib + Luminespib; first compound 0.02 µM
  relative viability: 0.715
Pictilisib + Luminespib; first compound 0.06325 µM
  relative viability: 0.65
Pictilisib + Luminespib; first compound 0.6325 µM
  relative viability: 0.419
Pictilisib + Luminespib; first compound 2 µM
  relative viability: 0.166
Pictilisib + Trametinib; first compound 0.02 µM
  relative viability: 0.864
Pictilisib + Trametinib; first compound 0.06325 µM
  relative viability: 0.916
Pictilisib + Trametinib; first compound 0.6325 µM
  relative viability: 0.784
Pictilisib + Trametinib; first compound 2 µM
  relative viability: 0.587
Pictilisib + Crizotinib; first compound 0.02 µM
  relative viability: 1.19
Pictilisib + Crizotinib; first compound 0.06325 µM
  relative viability: 1.09
Pictilisib + Crizotinib; first compound 0.6325 µM
  relative viability: 0.973
Pictilisib + Crizotinib; first compound 2 µM
  relative viability: 0.617

## BEN
Pictilisib + Decitabine; first compound 0.02 µM
  relative viability: 0.659
Pictilisib + Decitabine; first compound 0.06325 µM
  relative viability: 0.776
Pictilisib + Decitabine; first compound 0.6325 µM
  relative viability: 0.806
Pictilisib + Decitabine; first compound 2 µM
  relative viability: 0.554
MK-2206 + OSI-027; first compound 0.01 µM
  relative viability: 0.3
MK-2206 + OSI-027; first compound 0.03162 µM
  relative viability: 0.301
MK-2206 + OSI-027; first compound 0.3162 µM
  relative viability: 0.271
MK-2206 + OSI-027; first compound 1 µM
  relative viability: 0.297
Pictilisib + Luminespib; first compound 0.02 µM
  relative viability: 0.54
Pictilisib + Luminespib; first compound 0.06325 µM
  relative viability: 0.269
Pictilisib + Luminespib; first compound 0.6325 µM
  relative viability: 0.275
Pictilisib + Luminespib; first compound 2 µM
  relative viability: 0.438
Pictilisib + Trametinib; first compound 0.02 µM
  relative viability: 1.02
Pictilisib + Trametinib; first compound 0.06325 µM
  relative viability: 0.953
Pictilisib + Trametinib; first compound 0.6325 µM
  relative viability: 0.962
Pictilisib + Trametinib; first compound 2 µM
  relative viability: 0.636
Pictilisib + Crizotinib; first compound 0.02 µM
  relative viability: 0.8
Pictilisib + Crizotinib; first compound 0.06325 µM
  relative viability: 1.07
Pictilisib + Crizotinib; first compound 0.6325 µM
  relative viability: 0.817
Pictilisib + Crizotinib; first compound 2 µM
  relative viability: 0.58

## NCI-H647
Pictilisib + Decitabine; first compound 0.02 µM
  relative viability: 0.308
Pictilisib + Decitabine; first compound 0.06325 µM
  relative viability: 0.389
Pictilisib + Decitabine; first compound 0.6325 µM
  relative viability: 0.276
Pictilisib + Decitabine; first compound 2 µM
  relative viability: 0.236
MK-2206 + OSI-027; first compound 0.01 µM
  relative viability: 0.573
MK-2206 + OSI-027; first compound 0.03162 µM
  relative viability: 0.584
MK-2206 + OSI-027; first compound 0.3162 µM
  relative viability: 0.469
MK-2206 + OSI-027; first compound 1 µM
  relative viability: 0.641
Pictilisib + Luminespib; first compound 0.02 µM
  relative viability: 0.124
Pictilisib + Luminespib; first compound 0.06325 µM
  relative viability: 0.151
Pictilisib + Luminespib; first compound 0.6325 µM
  relative viability: 0.265
Pictilisib + Luminespib; first compound 2 µM
  relative viability: 0.185
Pictilisib + Trametinib; first compound 0.02 µM
  relative viability: 0.554
Pictilisib + Trametinib; first compound 0.06325 µM
  relative viability: 0.464
Pictilisib + Trametinib; first compound 0.6325 µM
  relative viability: 0.307
Pictilisib + Trametinib; first compound 2 µM
  relative viability: 0.126
Pictilisib + Crizotinib; first compound 0.02 µM
  relative viability: 1.16
Pictilisib + Crizotinib; first compound 0.06325 µM
  relative viability: 1.18
Pictilisib + Crizotinib; first compound 0.6325 µM
  relative viability: 0.884
Pictilisib + Crizotinib; first compound 2 µM
  relative viability: 0.524

## PC-14
Pictilisib + Decitabine; first compound 0.02 µM
  relative viability: 0.245
Pictilisib + Decitabine; first compound 0.06325 µM
  relative viability: 0.254
Pictilisib + Decitabine; first compound 0.6325 µM
  relative viability: 0.302
Pictilisib + Decitabine; first compound 2 µM
  relative viability: 0.322
MK-2206 + OSI-027; first compound 0.01 µM
  relative viability: 0.746
MK-2206 + OSI-027; first compound 0.03162 µM
  relative viability: 0.911
MK-2206 + OSI-027; first compound 0.3162 µM
  relative viability: 0.597
MK-2206 + OSI-027; first compound 1 µM
  relative viability: 0.661
Pictilisib + Luminespib; first compound 0.02 µM
  relative viability: 0.162
Pictilisib + Luminespib; first compound 0.06325 µM
  relative viability: 0.151
Pictilisib + Luminespib; first compound 0.6325 µM
  relative viability: 0.141
Pictilisib + Luminespib; first compound 2 µM
  relative viability: 0.123
Pictilisib + Trametinib; first compound 0.02 µM
  relative viability: 0.749
Pictilisib + Trametinib; first compound 0.06325 µM
  relative viability: 0.761
Pictilisib + Trametinib; first compound 0.6325 µM
  relative viability: 0.537
Pictilisib + Trametinib; first compound 2 µM
  relative viability: 0.196
Pictilisib + Crizotinib; first compound 0.02 µM
  relative viability: 0.909
Pictilisib + Crizotinib; first compound 0.06325 µM
  relative viability: 0.928
Pictilisib + Crizotinib; first compound 0.6325 µM
  relative viability: 0.926
Pictilisib + Crizotinib; first compound 2 µM
  relative viability: 0.681
